Patent publication US9606124B2, “Methods of detecting and treating stem-cell containing solid tumors” (The Regents of The University of Michigan, priority 2008, dated 2017)
Entries after “also recorded” stand apart in the source; their conditions may differ. Where two headings read alike, the source gives them in different places.

How the values were obtained:
[1] = test system: CXCR1-positive population of SUM159 cells; test: Flow cytometry of the CXCR1-positive population of SUM159 cells; type: cell-based, human; conditions: repertaxin, repertaxin plus anti-FAS-ligand, FAS agonist
Protocol: Flow cytometry analysis. […] CD95/FAS staining were performed utilizing an anti-CD95 labeled APC (1:20, BD biosciences). […] Fresh cells were stained with 1 μg/ml PI (Sigma) for 5 min for viability.

[2] = test system: normal mammary epithelial cells from reduction mammoplasties; test: MTT assay on normal mammary epithelial cells; type: cell-based, human; conditions: adherent; five days; repertaxin 100 nM or 500 nM, FAS agonist 500 ng/ml
Protocol: Dissociation of mammary tissue. 100-200 g of normal breast tissue from reduction mammoplasties was minced with scalpels, dissociated enzymatically, and single cells were cultured in suspension to generate mammospheres or on a collagen substratum in adherent condition to induce cellular differentiation (Dontu et al. Genes Dev. 17:1253-1270, herein incorporated by reference in its entirety).
Cell viability. […] After one day, treatment with repertaxin was started. […]. […] Nuclei were counterstained with DAPI/antifade (Invitrogen).

[3] = test system: normal mammary epithelial cells; test: Mammosphere formation by normal mammary epithelial cells; type: cell-based, human; conditions: repertaxin 100 nM for four to fifteen days adherent, then suspension
[4] = test system: FAK Tyr397 and AKT Ser473 phosphorylation; test: Western blotting of FAK/AKT activation in MDA-MB-453; type: cell-based, human
Protocol: (§1) Western blotting. Cells were lysed in a laemmli buffer and loaded onto SDS-polyacrylamide gels. Blots were incubated with the respective primary antibodies diluted in TBST (containing 0.1% Tween20 and 2% BSA) either overnight at 4o, or 2 hours at room temperature. Blots were washed and incubated with appropriate secondary antibodies (GE Healthcare, UK) and detected using SuperSignal West Pico Chemiluminescent Substrate (Pierce).

FOXO3A = test: Immunofluorescence staining of FOXO3A localization in SUM159 cells; type: cell-based, human
Protocol: The non-treated SUM159 cells presented 80% of cells positive in the cytoplasm for FOXOA3. […] The change in FOXOA3 cellular localation from the cytoplasm to the nucleus indicates an activation of FOXOA3 protein.
(§2) Immunostaining. For immunofluorescent staining, sorted CXCR1-positive cells were fixed with 95% methanol at −20° C. for 10 minutes. Cells were rehydrated in PBS and incubated with respective antibodies at room temperature for 1 hour. Primary antibodies used were P-FAK (1:50, Cell Signaling Technology), P-AKT (1:300, Cell Signaling Technology), and FOXO3a (1:250, Cell Signaling Technology). Slides were then washed and incubated 30 minutes with PE conjugated secondary antibodies (Jackson labs). The nuclei were counterstained with DAPI/antifade (Invitrogen) and coverslipped. […] Immunohistochemistry for the detection of ALDH1 (1:100, BD biosciences), P-FAK, P-AKT, FOXO3a expression was done on paraffin section (Ginestier et al. Am. J Pathol. 161:1223-1233, herein incorporated by reference in its entirety). Staining was done utilizing the Histostainplus kit (Zymed laboratories). Diaminobenzidine (DAB) or 3-amino-9-ethylcarbazole (AEC) was used as chromogen and sections were counterstained with hematoxylin.

[5] = test system: SUM159 PTEN-siRNA and SUM159 Ad-FAK cells; test: Repertaxin on SUM159 PTEN-siRNA and SUM159 Ad-FAK cells (western, immunofluorescence, MTT, ALDEFLUOR); type: cell-based, human; conditions: for FAK and AKT activity / FOXO3A activation in cells with PTEN deletion or FAK overexpression: 100 nM, two days
Text: Cell viability. […] Nuclei were counterstained with DAPI/antifade (Invitrogen).
ALDEFLUOR assay. The ALDEFLUOR kit (StemCell technologies) was used to isolate the population with high ALDH enzymatic activity using a FACStarPLUS (Becton Dickinson) as previously described (Ginestier et al. Cell Stem Cell 1:555-567, herein incorporated by reference in its entirety). In order to eliminate cells of mouse origin from the xenotransplanted tumors, cell population was stained with an anti-H2Kd antibody (BD biosciences, 1/200, 20 min on ice) followed by staining with a secondary antibody labeled with phycoerythrin (PE) (Jackson labs, 1/250, 20 min on ice).
as §1, §2
Virus infection. […] All lentiviral constructs were prepared by the University of Michigan Vector. An adenoviral construct for the overexpression of FAK (Ad-FAK-GFP) was also utilized (Luo et al. Cancer Res. 69:466-474, herein incorporated by reference in its entirety). Cells infection with different vectors was performed as previously described (Charafe-Jauffret et al. Cancer Res. 69:1302-1313, herein incorporated by reference in its entirety). Efficiency of infection was verified by measuring the percentage of DsRed or GFP expressing cells.

phospho-FAK = test: Immunohistochemistry of phospho-FAK in xenotransplants; design: species or system NOD/SCID mice; conditions: mouse, in vivo
Protocol: as §2

ALDH1 = test: Immunohistochemistry of ALDH1 in xenotransplants; type: in vivo, NOD/SCID mice; conditions: compared to untreated tumors
Protocol: as §2

SUM159 cells = test: Metastasis formation after intracardiac injection of SUM159 cells (bioluminescence); type: in vivo, NOD/SCID mice; conditions: 250,000 cells intracardiac, repertaxin 15 mg/kg s.c. twice a day 28 days vs saline
Protocol: A SUM159 cell line was infected with a lentivirus expressing luciferase and inoculated 250,000 luciferase infected cells in the heart of NOD/SCID mice. The mice were organized into two groups.
Intracardiac inoculation. Six weeks-old NOD/SCID mice were anesthetized with 2% isofluorane/air mixture and injected in the heart left ventricle with 250,000 cells in 100 μL of sterile Dulbecco's PBS lacking Ca2+ and Mg2+. […] Twelve hours after intracardiac injections, mice were begun on twice per day repertaxin injections or saline for the controls.
(§3) Bioluminescence detection. Baseline bioluminescence was assessed before inoculation and each week thereafter inoculations. Bioluminescence detection procedures was performed as previously described (Charafe-Jauffret et al. Cancer Res. 69:1302-1313, herein incorporated by reference in its entirety). Normalized photon flux represents the ratio of the photon flux detected each week after inoculations and the photon flux detected before inoculation.

MDA-MB-453 cells = test: Metastasis formation after intracardiac injection of MDA-MB-453 cells (bioluminescence); type: in vivo, NOD/SCID mice; conditions: 250,000 cells intracardiac, repertaxin 15 mg/kg s.c. twice a day 28 days vs saline
Protocol: as §3, with “Intracardiac inoculation. […] Twelve hours after intracardiac injections, mice were begun on twice per day repertaxin injections or saline for the controls. Bioluminescence detection.” for “Bioluminescence detection.”, “previously described ([…] et al.” for “previously described (Charafe-Jauffret et al.”

SUM159 cell line = test: MTT assay, cell growth / cell viability of SUM159 cells
Protocol: After 4 days of treatment, the effect on cell growth was analyzed using the MTT assay (FIG. 5A) and on the cancer stem cell population using the ALDEFLUOR assay (FIG. 5B).

CC(C)Cc1ccc([C@@H](C)C(=O)NS(C)(=O)=O)cc1 [Repertaxin]
percent of CXCR1-positive cells [1]: massive decrease | viability of normal mammary epithelial cells (MTT) [2]: no effect | mammosphere formation by normal mammary epithelial cells [3]: significantly decreased mammosphere formation; also recorded: significant decrease of mammosphere-initiating cells | FAK Tyr397 and AKT Ser473 phosphorylation (western blot) [4]: No modification | cells positive in the nucleus for FOXOA3 (FOXO3A; SUM159, 100 nM, 2 days): 80% | FOXO3A localization (immunofluorescence) (FOXO3A; sorted CXCR1-positive cells, listed as repertaxin): shuttled to the nucleus; also recorded: re-localization of FOXO3A to the nucleus | ALDEFLUOR-positive population of cells with PTEN deletion or FAK overexpression [5]: did not alter the proportion of ALDEFLUOR-positive SUM159 PTEN knockdown cells | FAK and AKT activity / FOXO3A activation in cells with PTEN deletion or FAK overexpression [5]: did not induce FOXO3A activation | FAK and AKT activity / FOXO3A activation in cells with PTEN deletion or FAK overexpression ([5]; listed as repertaxin): PTEN knockdown blocked the effect of repertaxin treatment on FAK and AKT activity; also recorded: PTEN deletion and FAK overexpression blocked the effect of repertaxin treatment on FAK and AKT activity | cell viability (MTT) of cells with PTEN deletion or FAK overexpression ([5]; 3 days of treatment): did not display any decrease in cell viability; also recorded: developed resistance to repertaxin | ALDEFLUOR-positive population of cells with PTEN deletion or FAK overexpression ([5]; listed as repertaxin): maintenance of the ALDELFUOR-positive populations | cells with membranous phospho-FAK expression in treated tumors (phospho-FAK): abolished; also recorded: no expression was detected | ALDH1-positive cells / ALDH1 expression in treated tumors (ALDH1): decrease in ALDH1-positive cells; also recorded: decrease of ALDH1 expression | metastasis formation (normalized photon flux) (SUM159 cells): statistically significant increase of metastasis formation in the group of mice treated with saline solution; also recorded: significantly reduced metastasis formation; also recorded: reduces the metastatic potential | metastasis formation (normalized photon flux) (SUM159 cells; listed as repertaxin): statistically significant decrease in metastasis formation | metastasis formation (normalized photon flux) (MDA-MB-453 cells): did not have any effect on metastasis formation | viability at 0.1 µM (SUM159 cell line; Homo sapiens, SUM159, 120 h, read-out: cells remaining viable / cell viability (MTT)): 3% | cell viability over time (one, three, five days) (SUM159 cell line; SUM159, repertaxin 100 nM): loss of cell viability beginning three days after treatment; also recorded: decrease in cell viability was observed after 3 days of treatment
